According to US5340591A, “Method of producing a solid dispersion of the sparingly water-soluble drug, nilvadipine” (Fujisawa Pharmaceutical Co., Ltd., priority 1992, dated 1994):
≈ marks a conversion by molar mass, not a printed value.

Experiment: Solubility of nilvadipine bulk substance
Assay type: physicochemical
Details: J.P.

SMILES: COC(=O)C1=C(C#N)NC(C)=C(C(=O)OC(C)C)C1c1cccc([N+](=O)[O-])c1 (centres unmarked) [nilvadipine bulk substance, nilvadipine]
- solubility (1st fluid): 1.3 µg/mL (≈ 3.37 µM)
- solubility (2nd fluid): 1 µg/mL (≈ 2.59 µM)
